Data reported in the supplement of paper PMC11061612.

Columns and labels:
Test in all cases: combination Emax (second highest fraction inhibited in the dose matrix, 72 h); higher = more inhibition; extreme values may be limits of the assay
[1] = system: DB (B-Cell Non-Hodgkin's Lymphoma)
Method in brief: (§1)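 After 24 hours at 37°C and 5% CO2 in 1536-well plates, cells in DMEM/F12 or RPMI plus 10% FBS received two-drug dose matrices for 72 hours. Viability came from CellTiter-Glo 2.0 luminescence and was scaled as inhibition, anchored at 0 by vehicle wells and at 1 by blank wells. Combination Emax is taken as the second-highest inhibition in the matrix, and Bliss excess as the observed combination effect less EA + EB − EA·EB, with EA and EB the single-agent effects.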

[2] = system: DOV13 (Ovarian Carcinoma)
Method in brief: as §1

SK-N-FI (Neuroblastoma) = system: SK-N-FI (Neuroblastoma)
Method in brief: as §1

[3] = system: MDA-MB-231 (Breast Carcinoma)
Method in brief: as §1

[4] = system: KARPAS-1106P (B-Cell Non-Hodgkin's Lymphoma)
Method in brief: as §1

NCI-H2595 (Mesothelioma) = system: NCI-H2595 (Mesothelioma)
Method in brief: as §1

[5] = system: OCI-AML2 (Acute Myeloid Leukemia)
Method in brief: as §1

ES7 (Ewing's Sarcoma) = system: ES7 (Ewing's Sarcoma)
Method in brief: as §1

[6] = system: G-292-Clone-A141B1 (Osteosarcoma)
Method in brief: as §1

[7] = system: NCI-H1299 (Non-Small Cell Lung Carcinoma)
Method in brief: as §1

[8] = system: KARPAS-620 (Plasma Cell Myeloma)
Method in brief: as §1

SN12C (Kidney Carcinoma) = system: SN12C (Kidney Carcinoma)
Method in brief: as §1

[9] = system: MDA-MB-157 (Breast Carcinoma)
Method in brief: as §1

[10] = system: U-266 (Plasma Cell Myeloma)
Method in brief: as §1

[11] = system: SW1088 (Low Grade Glioma)
Method in brief: as §1

[12] = system: KATOIII (Gastric Carcinoma)
Method in brief: as §1

[13] = system: MFH-ino (Other Solid Carcinomas)
Method in brief: as §1

[14] = system: SW1783 (Low Grade Glioma)
Method in brief: as §1

[15] = system: NCI-H211 (Small Cell Lung Carcinoma)
Method in brief: as §1

[16] = system: IHH-4 (Thyroid Gland Carcinoma)
Method in brief: as §1

Row | SMILES | combination Emax [1] | combination Emax [2] | combination Emax (SK-N-FI (Neuroblastoma)) | combination Emax [3] | combination Emax [4] | combination Emax (NCI-H2595 (Mesothelioma)) | combination Emax [5] | combination Emax (ES7 (Ewing's Sarcoma)) | combination Emax [6] | combination Emax [7] | combination Emax [8] | combination Emax (SN12C (Kidney Carcinoma)) | combination Emax [9] | combination Emax [10] | combination Emax [11] | combination Emax [12] | combination Emax [13] | combination Emax [14] | combination Emax [15] | combination Emax [16]
1 | C[C@@H](Nc1cc(F)cc(F)c1)c1cc(C(=O)N(C)C)cc2c(=O)cc(N3CCOCC3)oc12 [AZD8186] + CC(=O)c1c(C)c2cnc(Nc3ccc(N4CCNCC4)cn3)nc2n(C2CCCC2)c1=O [Palbociclib] (first compound max 10 µM, 7x7, partner max 10 µM) | 0.601 | 0.484 | 0.43 | 0.49 | 0.791 | 0.303 | 0.834 | 0.724 | 0.428 | 0.497 | 0.775 | 0.281 | 0.333 | 0.155 | 0.724 | 0.356 | 0.423 | 0.617 | 0.754 | 0.426
2 | O=C(c1cc(Cc2n[nH]c(=O)c3ccccc23)ccc1F)N1CCN(C(=O)C2CC2)CC1 [Olaparib] + CC1(C)CCC(CN2CCN(c3ccc(C(=O)NS(=O)(=O)c4ccc(NCC5CCOCC5)c([N+](=O)[O-])c4)c(Oc4cnc5[nH]ccc5c4)c3)CC2)=C(c2ccc(Cl)cc2)C1 [Venetoclax] (first compound max 10 µM, 7x7, partner max 1 µM) | 0.849 | 0.158 | 0.0529 | 0.239 | 0.402 | 0.109 | 0.99 | 0.95 | 0.0374 | 0.0838 | 0.872 | 0.206 | 0.165 | 0.248 | 0.136 | 0.412 | 0.118 | 0.0873 | 0.99 | 0.169
3 | CC1(C)CCC(CN2CCN(c3ccc(C(=O)NS(=O)(=O)c4ccc(NCC5CCOCC5)c([N+](=O)[O-])c4)c(Oc4cnc5[nH]ccc5c4)c3)CC2)=C(c2ccc(Cl)cc2)C1 [Venetoclax] + CS(=O)(=O)CCNCc1ccc(-c2ccc3ncnc(Nc4ccc(OCc5cccc(F)c5)c(Cl)c4)c3c2)o1 [Lapatinib] (first compound max 1 µM, 7x7, partner max 10 µM) | 0.949 | 0.166 | 0.223 | 0.17 | 0.419 | 0.197 | 1 | 0.613 | 0.113 | 0.125 | 0.981 | 0.222 | 0.172 | 0.254 | 0.254 | 0.291 | 0.0533 | 0.207 | 1 | 0.175
4 | O=C(c1cc(Cc2n[nH]c(=O)c3ccccc23)ccc1F)N1CCN(C(=O)C2CC2)CC1 [Olaparib] + COc1nnc2ccc(N3CCC(c4ccc(OCCN5CCN(C)C(=O)[C@H]5C)cc4)CC3)nn12 [AZD5153] (first compound max 10 µM, 7x7, partner max 1 µM) | 0.74 | 0.455 | 0.489 | 0.626 | 0.791 | 0.273 | 0.983 | 0.944 | 0.224 | 0.637 | 0.666 | 0.255 | 0.438 | 0.291 | 0.392 | 0.4 | 0.346 | 0.319 | 0.992 | 0.535
5 | N#Cc1cnc(Nc2cc(NC[C@H]3CNCCO3)c(C(F)(F)F)cn2)cn1 [SRA737] + Nc1ccn([C@@H]2O[C@H](CO)[C@@H](O)C2(F)F)c(=O)n1 [Gemcitabine] (first compound max 10 µM, 7x7, partner max 0.3 µM) | 0.931 | 0.97 | 0.752 | 0.838 | 0.951 | 0.397 | 1 | 0.989 | 0.317 | 0.765 | 0.801 | 0.664 | 0.905 | 0.78 | 0.626 | 0.557 | 0.738 | 0.729 | 0.977 | 1
6 | CS(=O)(=O)CCNCc1ccc(-c2ccc3ncnc(Nc4ccc(OCc5cccc(F)c5)c(Cl)c4)c3c2)o1 [Lapatinib] + NC1(c2ccc(-c3nc4ccn5c(=O)[nH]nc5c4cc3-c3ccccc3)cc2)CCC1 [MK-2206] (first compound max 10 µM, 7x7, partner max 10 µM) | 0.944 | 0.867 | 0.461 | 0.729 | 0.666 | 0.228 | 0.912 | 0.938 | 0.468 | 0.407 | 0.928 | 0.238 | 0.273 | 0.352 | 0.624 | 0.44 | 0.153 | 0.395 | 0.944 | 0.92
7 | Cc1cc2ncnn2cc1Nc1ncc2c(n1)n(C1CCOCC1)c(=O)n2C [AZD7648] + COc1cc([C@@H]2c3cc4c(cc3[C@@H](O[C@@H]3O[C@@H]5CO[C@@H](C)O[C@H]5[C@H](O)[C@H]3O)[C@H]3COC(=O)[C@H]23)OCO4)cc(OC)c1O [Etoposide] (first compound max 10 µM, 7x7, partner max 10 µM) | 0.907 | 0.923 | 0.368 | 0.842 | 0.781 | 0.446 | 1 | 0.977 | 0.321 | 0.649 | 0.786 | 0.641 | 0.855 | 0.581 | 0.574 | 0.368 | 0.665 | 0.706 | 0.968 | 0.956
8 | C[C@@H](Oc1cc(-c2cnn(C3CCNCC3)c2)cnc1N)c1c(Cl)ccc(F)c1Cl [Crizotinib] + Cn1cnc2c(F)c(Nc3ccc(Br)cc3Cl)c(C(=O)NOCCO)cc21 [Selumetinib] (first compound max 10 µM, 7x7, partner max 10 µM) | 0.751 | 0.647 | 0.809 | 0.725 | 0.953 | 0.292 | 1 | 0.818 | 0.794 | 0.574 | 0.941 | 0.244 | 0.243 | 0.624 | 0.596 | 0.588 | 0.542 | 0.194 | 0.943 | 0.758
9 | C=CCn1c(=O)c2cnc(Nc3ccc(N4CCN(C)CC4)cc3)nc2n1-c1cccc(C(C)(C)O)n1 [AZD1775] + CCc1c2c(nc3ccc(O)cc13)-c1cc3c(c(=O)n1C2)COC(=O)[C@]3(O)CC [SN-38] (first compound max 1 µM, partner max 0.3 µM) | 0.985 | 1 | 0.586 | 0.916 | 0.924 | 0.318 | 1 | 0.997 | 0.464 | 0.751 | 0.546 | 0.587 | 0.967 | 0.715 | 0.712 | 0.431 | 0.737 | 0.825 | 0.989 | 0.975
